Results as given in the NIST ThermoML archive (doi:10.1021/je501065g).

Conditions: Liquid, Pulse-echo method

c1ccccc1 [benzene]
Conditions	speed of sound [m/s]
283.2 K, 102.1 kPa	1372
283.2 K, 5280.1 kPa	1396
283.2 K, 10234 kPa	1418.2
283.2 K, 15332 kPa	1439.9
283.2 K, 20204 kPa	1460.2
283.2 K, 24857 kPa	1479
283.21 K, 29815 kPa	1498.1
298.2 K, 84.2 kPa	1299.7
298.2 K, 5421.7 kPa	1327
298.2 K, 10069 kPa	1349.5
298.2 K, 14866 kPa	1371
298.2 K, 20104 kPa	1394.3
298.2 K, 25018 kPa	1415.8
298.2 K, 30106 kPa	1436.9
313.2 K, 61.2 kPa	1230.4
313.2 K, 5536.5 kPa	1259.8
313.2 K, 10140 kPa	1283.5
313.2 K, 15332 kPa	1309
313.2 K, 20194 kPa	1332.2
313.2 K, 25204 kPa	1354.8
313.2 K, 29980 kPa	1375.7
333.21 K, 153.7 kPa	1139.7
333.21 K, 5378.8 kPa	1171.4
333.21 K, 10149 kPa	1198.3
333.21 K, 15038 kPa	1225
333.21 K, 19601 kPa	1248.5
333.21 K, 24756 kPa	1274
333.21 K, 30146 kPa	1299.2
353.2 K, 15092 kPa	1146.6
353.2 K, 19918 kPa	1173.2
353.21 K, 172.3 kPa	1052.2
353.21 K, 5094.9 kPa	1084.9
353.21 K, 10007 kPa	1116.2
353.21 K, 24680 kPa	1198.7
353.21 K, 30063 kPa	1226

CCO [ethanol]
Conditions	speed of sound [m/s]
253.22 K, 104.2 kPa	1304.8
253.22 K, 130.2 kPa	1305.1
253.22 K, 5018.8 kPa	1330.4
253.22 K, 5283.4 kPa	1331.5
253.22 K, 10112 kPa	1355.4
253.22 K, 10246 kPa	1355.8
253.22 K, 15106 kPa	1379.1
253.22 K, 15229 kPa	1379.4
253.22 K, 19991 kPa	1401.4
253.22 K, 20403 kPa	1402.9
253.22 K, 24921 kPa	1422.9
253.22 K, 25022 kPa	1423.6
253.22 K, 30114 kPa	1444.8
253.23 K, 30052 kPa	1444.5
273.2 K, 99.9 kPa	1230.8
273.2 K, 5193.3 kPa	1259.3
273.2 K, 10100 kPa	1285.4
273.2 K, 15284 kPa	1311.7
273.2 K, 20253 kPa	1336
273.2 K, 25058 kPa	1358.8
273.2 K, 25221 kPa	1359.3
273.2 K, 30203 kPa	1381.6
273.21 K, 128.6 kPa	1231.1
273.21 K, 5026.6 kPa	1258.5
273.21 K, 10148 kPa	1285.8
273.21 K, 15029 kPa	1310.8
273.21 K, 20070 kPa	1335.2
273.21 K, 30338 kPa	1382.2
293.2 K, 103.7 kPa	1160
293.2 K, 5339.4 kPa	1192
293.2 K, 10368 kPa	1220.8
293.2 K, 15197 kPa	1247.2
293.2 K, 20222 kPa	1273.4
293.2 K, 25256 kPa	1298.5
293.2 K, 30069 kPa	1321.4
293.21 K, 140 kPa	1160.4
293.21 K, 5169 kPa	1191
293.21 K, 9977.3 kPa	1218.7
293.21 K, 15052 kPa	1246.6
293.21 K, 20101 kPa	1272.9
293.21 K, 25034 kPa	1297.5
293.21 K, 30268 kPa	1322.5
313.21 K, 103.8 kPa	1091.9
313.21 K, 121.8 kPa	1092.3
313.21 K, 5023.3 kPa	1124.7
313.21 K, 5318.6 kPa	1126.5
313.21 K, 10011 kPa	1155.8
313.21 K, 10351 kPa	1157.8
313.21 K, 14993 kPa	1185.1
313.21 K, 15238 kPa	1186.6
313.21 K, 20052 kPa	1213.5
313.21 K, 20317 kPa	1214.8
313.21 K, 25163 kPa	1240.5
313.21 K, 25383 kPa	1241.6
313.21 K, 30116 kPa	1265.6
313.21 K, 30384 kPa	1266.8
333.21 K, 104.1 kPa	1024.9
333.21 K, 137.3 kPa	1025.2
333.21 K, 5087.6 kPa	1061.2
333.21 K, 5212.7 kPa	1062.1
333.21 K, 10090 kPa	1095
333.21 K, 10228 kPa	1095.9
333.21 K, 15025 kPa	1126.4
333.21 K, 15294 kPa	1127.9
333.21 K, 19954 kPa	1155.9
333.21 K, 20181 kPa	1157.1
333.21 K, 24959 kPa	1184.2
333.21 K, 25377 kPa	1186.4
333.21 K, 30028 kPa	1211.3
333.21 K, 30214 kPa	1212.3
353.2 K, 103.5 kPa	957.73
353.21 K, 132.1 kPa	957.59
353.21 K, 5006 kPa	996.76
353.21 K, 5137.5 kPa	997.75
353.21 K, 10089 kPa	1034.4
353.21 K, 10319 kPa	1035.9
353.21 K, 15035 kPa	1068.3
353.21 K, 15211 kPa	1069.4
353.21 K, 20108 kPa	1100.9
353.21 K, 20273 kPa	1101.7
353.21 K, 25007 kPa	1130.5
353.21 K, 25250 kPa	1131.8
353.21 K, 30102 kPa	1159.5
353.21 K, 30289 kPa	1160.5
